Experimental findings from patent publication US7105510B2, “Non-nucleoside reverse transcriptase inhibitors” (Boehringer Ingelheim (Canada) Ltd., priority 2002, dated 2006) are described below.

The target in one assay is T1, HIV-1 RT WT (Human immunodeficiency virus type 1 group M subtype B, UniProt P03366).
T1 construct: mutations that occur in the reverse transcriptase segment of the pol gene
Put plainly: Reverse Transcriptase (RT) assay, wild type. In kind it is biochemical. From the text:
(§1) Based upon testing of these compounds, as described below, it is known that they inhibit the RNA-dependent DNA polymerase activity of HIV-1 RT. Utilizing the Reverse Transcriptase (RT) Assay described below, compounds can be tested for their ability to inhibit the RNA-dependent DNA polymerase activity of HIV-1 RT. Certain specific compounds described in the Examples which appear below, were so tested. The results of this testing appear in Table 2 as IC50 (nM) and EC50 (nM).
(§2) Reverse Transcriptase (RT) and Cell-Based Assays
(§3) The assays are as described in WO 01/96338A1, the contents of which are hereby incorporated herein.

Another assay concerns the target T2, HIV-1 RT K103N/Y181C (Human immunodeficiency virus type 1 group M subtype B, UniProt P03366, K702N/Y780C).
T2 construct: mutations that occur in the reverse transcriptase segment of the pol gene
Put plainly: Reverse Transcriptase (RT) assay, double mutant K103N/Y181C. In kind it is biochemical.
Text: as §1, §2, §3

The test system of a further assay is HIV-1 WT. The experiment in a line: Cell-based assay, wild type. Particulars: Human immunodeficiency virus 1.
Text: as §2, §3

Assay [1] deals with HIV-1 K103N/Y181C (103/181). The experiment in a line: Cell-based assay, 103/181 double mutant. Particulars: Human immunodeficiency virus 1, read-out: EC50 103/181.
Text: as §2, §3

`CCN1c2ncc(CCOc3cccc4c3C(C)(C)OC(=O)N4)cc2C(=O)N(C)c2cccnc21` [Entry 125, 5,11-Dihydro-8-{2-{(1,4-dihydro-4,4-dimethyl-2-oxo-2H-3,1-benzoxazin-5-yl)oxy}ethyl}-11-ethyl-5-methyl-6H-dipyrido[3,2-b:2′,3′-e][1,4]diazepin-6-one]: the IC50 (in general, the concentration at which inhibition is half-maximal) is 50 to 100 nM against HIV-1 RT WT and over 100 nM on HIV-1 RT K103N/Y181C.
The matching figures for `CCN1c2ncc(CCOc3cccc4c3CNC(=O)O4)cc2C(=O)N(C)c2cccnc21` [Entry 124, 5,11-Dihydro-8-{2-{(3,4-dihydro-2-oxo-2H-1,3-benzoxazin-5-yl)oxy}ethyl}-11-ethyl-5-methyl-6H-dipyrido[3,2-b:2′,3′-e][1,4]diazepin-6-one]: under 50 nM and under 50 nM.
As for `CCN1c2ncc(CCOc3cccc4c3CNC(=O)N4C)cc2C(=O)N(C)c2cccnc21` [Entry 113], the IC50 on HIV-1 RT WT and against HIV-1 RT K103N/Y181C was under 50 nM in each case. The EC50 (in the assay with HIV-1 WT; in assay [1]) was under 10 nM throughout.
With `CCN1c2ncc(CCOc3cccc4c3COC(=O)N4CC(=O)O)cc2C(=O)N(C)c2cccnc21` [Entry 128, 5-[2-(6,11-dihydro-11-ethyl-5-methyl-6-oxo-5H-dipyrido[3,2-b:2′,3′-e][1,4]diazepin-8-yl)ethoxy]-2-oxo-2H-3,1-benzoxazine-1(4H)-acetic acid], the IC50 against HIV-1 RT WT is 50 to 100 nM; against HIV-1 RT K103N/Y181C, over 100 nM.
On to `CCN1c2ncc(CCOc3cccc4c3CN(O)C4=O)cc2C(=O)N(C)c2cccnc21` [Entry 103, 5,11-Dihydro-8-{2-{(2,3-dihydro-2-hydroxy-1-oxo-1H-isoindol-4-yl)oxy}ethyl}-11-ethyl-5-methyl-6H-dipyrido[3,2-b:2′,3′-e][1,4]diazepin-6-one], for which the values for the IC50 on HIV-1 RT WT and against HIV-1 RT K103N/Y181C were 50 to 100 nM and over 100 nM, respectively. The EC50 is under 10 nM in the assay with HIV-1 WT and 10 to 50 nM in assay [1].
In the case of `CCN1c2ncc(CCOc3cccc4c3CN(C)C(=O)N4C)cc2C(=O)Nc2c(C)ccnc21` [Entry 115], the figures for the IC50 on HIV-1 RT WT and at HIV-1 RT K103N/Y181C were under 50 nM and over 100 nM, respectively.
The matching figures for `CCN1c2ncc(CCOc3ccc4[nH]c(=O)[nH]c4c3)cc2C(=O)N(C)c2cccnc21` [Entry 122, 5,11-Dihydro-8-{2-{(2,3-dihydro-2-oxo-1H-benzimidazol-5-yl)oxy}ethyl}-11-ethyl-5-methyl-6H-dipyrido[3,2-b:2′,3′-e][1,4]diazepin-6-one]: 50 to 100 nM and over 100 nM.
In the same order, the values of `CCN1C(=O)c2cc(CCOc3cccc4c3CNC(=O)N4)cnc2N(CC)c2ncccc21` [Entry 117] are under 50 nM and over 100 nM.
On to `CCN1c2ncc(CCOc3cccc4c3CNC4=O)cc2C(=O)N(C)c2cccnc21` [Entry 101, 5,11-Dihydro-8-{2-{(2,3-dihydro-1-oxo-1H-isoindol-4-yl)oxy}ethyl}-11-ethyl-5-methyl-6H-dipyrido[3,2-b:2′,3′-e][1,4]diazepin-6-one], for which the IC50 against HIV-1 RT WT is under 50 nM; on HIV-1 RT K103N/Y181C, over 100 nM. The EC50 (in the assay on HIV-1 WT; in assay [1]) was under 10 nM throughout.
As for `Cc1ccnc2c1NC(=O)c1cc(CCOc3cccc4c3CNC(=O)N4)cnc1N2C1CC1` [Entry 114], the results for the IC50 against HIV-1 RT WT and against HIV-1 RT K103N/Y181C were under 50 nM and over 100 nM, respectively.
In the same order, the values of `CCN1c2ncc(CCOc3ccc4on(C)c(=O)c4c3)cc2C(=O)Nc2c(C)cc(F)nc21` [Entry 130] are under 50 nM and over 100 nM.
In the same order, the values of `CCN1c2ncc(CCOc3cccc4c3CCNC4=O)cc2C(=O)N(C)c2cccnc21` [Entry 108] are under 50 nM and 50 to 100 nM.
On to `CCN1c2ncc(CCOc3cccc4c3CNC(=O)N4)cc2C(=O)Nc2c(C)ccnc21` [Entry 111], for which the IC50 against HIV-1 RT WT was under 50 nM; on HIV-1 RT K103N/Y181C, over 100 nM. The results for the EC50 (in the assay with HIV-1 WT; in assay [1]) were under 10 nM and 10 to 50 nM, respectively.
Take `CCN1c2ncc(CCOc3cccc4c3CC(=O)N4)cc2C(=O)N(C)c2cccnc21` [Entry 105, 5,11-Dihydro-8-{2-{(2,3-dihydro-2-oxo-1H-indol-4-yl)oxy}ethyl}-11-ethyl-5-methyl-6H-dipyrido[3,2-b:2′,3′-e][1,4]diazepin-6-one]: the IC50 at HIV-1 RT WT was 50 to 100 nM; against HIV-1 RT K103N/Y181C, over 100 nM.
The matching figures for `CCN1c2ncc(CCOc3ccc4c(c3)CN(C)C(=O)N4C)cc2C(=O)N(C)c2cccnc21` [Entry 120]: under 50 nM and over 100 nM.
In the same order, the values of `CCN1c2ncc(CCOc3cccc4c3COC(=O)N4)cc2C(=O)Nc2c(C)ccnc21` [Entry 127] are under 50 nM and over 100 nM.
On to `CCN1c2ncc(CCOc3cccc4c3CN(Cc3ccncc3)C4=O)cc2C(=O)N(C)c2cccnc21` [Entry 104, 5,11-dihydro-8-{2-{{2,3-dihydro-1-oxo-2-(4-pyridinylmethyl)-1H-isoindol-4-yl}oxy}ethyl}-11-ethyl-5-methyl-6H-dipyrido[3,2-b:2′,3′-e][1,4]diazepin-6-one], for which the IC50 on HIV-1 RT WT is under 50 nM; against HIV-1 RT K103N/Y181C it was 50 to 100 nM.
As to `CCN1c2ncc(CCOc3cccc4c3CN(C)C(=O)N4C)cc2C(=O)N(C)c2cccnc21` [Entry 112], the half-inhibitory concentration (IC50) at HIV-1 RT WT is under 50 nM; against HIV-1 RT K103N/Y181C, over 100 nM. The figures for the EC50 (in the assay with HIV-1 WT; in assay [1]) were under 10 nM and 10 to 50 nM, respectively.
In the same order, the values of `CCN1c2ncc(CCOc3cccc4c3CNC(=O)N4CC(=O)O)cc2C(=O)N(C)c2cccnc21` [Entry 118] are under 50 nM, over 100 nM, over 50 nM and over 50 nM.
At HIV-1 RT WT, `CCN1c2ncc(CCOc3cccc4c3CC(=O)N4C)cc2C(=O)N(C)c2cccnc21` [Entry 107, 5,11-dihydro-8-{2-{(2,3-dihydro-1-methyl-2-oxo-1H-indol-4-yl)oxy}ethyl}-11-ethyl-5-methyl-6H-dipyrido[3,2-b:2′,3′-e][1,4]diazepin-6-one] showed an IC50 of 50 to 100 nM.
In the case of `CCN1c2ncc(CCOc3cccc4c3COC(=O)N4)cc2C(=O)N(C)c2cccnc21` [Entry 126, 5,11-Dihydro-8-{2-{(1,4-dihydro-2-oxo-2H-3,1-benzoxazin-5-yl)oxy}ethyl}-11-ethyl-5-methyl-6H-dipyrido[3,2-b:2′,3′-e][1,4]diazepin-6-one], the IC50 on HIV-1 RT WT is under 50 nM; against HIV-1 RT K103N/Y181C, over 100 nM.
Consider `CCN1c2ncc(CCOc3ccc4on(C(C)(C)C)c(=O)c4c3)cc2C(=O)Nc2c(C)cc(F)nc21` [Entry 129, 5,11-Dihydro-8-{2-{{2,3-dihydro-2-(1,1-dimethylethyl)-3-oxo-1,2-benzisoxazol-5-yl}oxy}ethyl}-2-fluoro-11-ethyl-4-methyl-6H-dipyrido[3,2-b:2′,3′-e][1,4]diazepin-6-one], for which the half-inhibitory concentration (IC50) is 50 to 100 nM on HIV-1 RT WT and over 100 nM at HIV-1 RT K103N/Y181C.
Regarding `CCN1c2ncc(CCOc3ccc4c(c3)COC(=O)N4)cc2C(=O)N(C)c2cccnc21` [Entry 133], the IC50 was under 50 nM against HIV-1 RT WT and over 100 nM against HIV-1 RT K103N/Y181C.
As for `CCN1c2ncc(CCOc3cccc4c3CNC(=O)N4C)cc2C(=O)Nc2c(C)ccnc21` [Entry 116], the IC50 is under 50 nM against HIV-1 RT WT and over 100 nM against HIV-1 RT K103N/Y181C.
Turning to `CCN1c2ncc(CCOc3cccc4[nH]c(=O)n(C)c34)cc2C(=O)N(C)c2cccnc21` [Entry 132], the IC50 against HIV-1 RT WT is 50 to 100 nM; on HIV-1 RT K103N/Y181C it was over 100 nM.
Turning to `CCN1c2ncc(CCOc3ccc4c(c3)CNC(=O)N4)cc2C(=O)N(C)c2cccnc21` [Entry 121], the IC50 at HIV-1 RT WT is 50 to 100 nM; against HIV-1 RT K103N/Y181C it was over 100 nM.
The matching figures for `CCN1c2ncc(CCOc3cccc4c3CCNC4=O)cc2C(=O)Nc2c(C)ccnc21` [Entry 109]: under 50 nM and over 100 nM.
For the compound `CCN1c2ncc(CCOc3cccc4c3CNC4=O)cc2C(=O)Nc2c(C)ccnc21` [Entry 102], the IC50 was under 50 nM on HIV-1 RT WT and over 100 nM at HIV-1 RT K103N/Y181C. Also, the EC50 (with HIV-1 WT; in assay [1]) was under 10 nM each time.
On to `CCN1c2ncc(CCOc3cccc4c3CNC(=O)N4)cc2C(=O)N(C)c2cccnc21` [Entry 110, 5,11-Dihydro-11-ethyl-5-methyl-8-{2-{(1,2,3,4-tetrahydro-2-oxo-5-quinazolinyl)oxy}ethyl}-6H-dipyrido[3,2-b:2′,3′-e][1,4]diazepin-6-one], for which the figures for the half-inhibitory concentration (IC50) against HIV-1 RT WT and against HIV-1 RT K103N/Y181C were under 50 nM and over 100 nM, respectively. For the same compound, the EC50 (in the assay with HIV-1 WT; in assay [1]) was under 10 nM in each case.
Consider `CCN1c2ncc(CCOc3cccc4c3n(C)c(=O)n4C)cc2C(=O)N(C)c2cccnc21` [Entry 131], for which the IC50 against HIV-1 RT WT is 50 to 100 nM; against HIV-1 RT K103N/Y181C, over 100 nM.
The matching figures for `CCN1c2ncc(CCOc3ccc4c(c3)CNC(=O)N4C)cc2C(=O)N(C)c2cccnc21` [Entry 119]: under 50 nM and over 100 nM.
In the same order, the values of `CCN1c2ncc(CCOc3cccc4c3CNC(=O)C4)cc2C(=O)N(C)c2cccnc21` [Entry 123, 5,11-Dihydro-11-ethyl-5-methyl-8-{2-{(1,2,3,4-tetrahydro-3-oxo-8-isoquinolinyl)oxy}ethyl}-6H-dipyrido[3,2-b:2′,3′-e][1,4]diazepin-6-one] are under 50 nM and under 50 nM.
Regarding `CCN1c2ncc(CCOc3cccc4c3C(C)C(=O)N4C)cc2C(=O)N(C)c2cccnc21` (stereo not drawn) [Entry 106, 5,11-dihydro-8-{2-{(2,3-dihydro-1,3-dimethyl-2-oxo-1H-indol-4-yl)oxy}ethyl}-11-ethyl-5-methyl-6H-dipyrido[3,2-b:2′,3′-e][1,4]diazepin-6-one], the IC50 against HIV-1 RT WT was 50 to 100 nM; on HIV-1 RT K103N/Y181C it was over 100 nM.
